{
  "source": "patent US9751886B2",
  "about": "“4-amino-6-phenyl-6,7-dihydro[1,2,3]triazolo[1,5-A]pyrazine derivatives as inhibitors of beta-secretase (BACE)” (Janssen Pharmaceutica NV, priority 2013, dated 2017)",
  "key": {"[1]": {"biological_target": "recombinant BACE1 protein (Homo sapiens (Human), UniProt P56817)", "sequence (P56817 46-501)": "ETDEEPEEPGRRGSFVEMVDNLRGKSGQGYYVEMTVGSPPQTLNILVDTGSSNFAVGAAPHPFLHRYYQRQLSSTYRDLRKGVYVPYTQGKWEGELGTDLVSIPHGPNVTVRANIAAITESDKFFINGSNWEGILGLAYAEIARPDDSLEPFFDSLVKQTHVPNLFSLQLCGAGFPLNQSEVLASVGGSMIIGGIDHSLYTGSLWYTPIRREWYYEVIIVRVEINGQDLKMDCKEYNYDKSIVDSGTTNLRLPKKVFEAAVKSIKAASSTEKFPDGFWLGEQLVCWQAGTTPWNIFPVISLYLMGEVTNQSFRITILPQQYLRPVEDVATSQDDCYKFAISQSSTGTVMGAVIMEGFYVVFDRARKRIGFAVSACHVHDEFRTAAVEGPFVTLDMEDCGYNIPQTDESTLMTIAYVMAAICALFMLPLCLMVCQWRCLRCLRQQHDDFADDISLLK", "experiment": "BACE1 Biochemical FRET based assay - Method 2", "settings": "0.04 μg/ml BACE1, 20 μM substrate, 450 min, pH 5.0", "text": "This assay is a Fluorescence Resonance Energy Transfer Assay (FRET) based assay. The substrate for this assay is an APP derived 13 amino acids peptide that contains the ‘Swedish’ Lys-Met/Asn-Leu mutation of the amyloid precursor protein (APP) beta-secretase cleavage site. This substrate also contains two fluorophores: (7-methoxycoumarin-4-yl) acetic acid (Mca) is a fluorescent donor with excitation wavelength at 320 nm and emission at 405 nm and 2,4-Dinitrophenyl (Dnp) is a proprietary quencher acceptor. […] Upon cleavage by BACE1, the fluorophore Mca is separated from the quenching group Dnp, restoring the full fluorescence yield of the donor. The increase in fluorescence is linearly related to the rate of proteolysis.\nBriefly in a 384-well format recombinant BACE1 protein in a final concentration of 0.04 μg/ml is incubated for 450 minutes at room temperature with 20 μM substrate in incubation buffer (50 mM Citrate buffer pH 5.0, 0.05% PEG) in the presence of compound or DMSO. Next the amount of proteolysis is directly measured by fluorescence measurement (excitation at 320 nm and emission at 405 nm) at different incubation times (0, 30, 60, 90, 120 and 450 min). For every experiment a time curve (every 30 min between 0 min and 120 min) is used to determine the time where we find the lowest basal signal of the high control. The signal at this time (Tx) is used to subtract from the signal at 450 min. Results are expressed in RFU, as difference between T450 and Tx."}, "[2]": {"system": "brain levels of soluble Aβ42, Aβ40", "experiment": "In vivo Aβ lowering in non-transgenic rodents (MSD electrochemiluminescence)", "design": "species or system mouse", "settings": "dose 10, s.c., untreated control = 100", "text": "To determine whether acute administration of an Aβ lowering agent would reduce Aβ levels in vivo, non-transgenic rodents, e.g. mice or rats were used. Animals treated with the Aβ lowering agent were examined and compared to those untreated or treated with vehicle and brain levels of soluble Aβ42, Aβ40, Aβ38, and Aβ37 were quantitated by Meso Scale Discovery's (MSD) electrochemiluminescence detection technology. Treatment periods varied from hours (h) to days and were adjusted based on the results of the Aβ lowering once a time course of onset of effect could be established.\nA typical protocol for measuring Aβ lowering in vivo is shown but it is only one of many variations that could be used to optimize the levels of detectable A. For example, Aβ lowering compounds were formulated in 20% of Captisol® (a sulfo-butyl ether of β-cyclodextrin) in water or 20% hydroxypropyl β cyclodextrin. The Aβ lowering agents were administered as a single oral dose or by any acceptable route of administration to overnight fasted animals. […]\nBlood was collected by decapitation and exsanguinations in EDTA-treated collection tubes. Blood was centrifuged at 1900 g for 10 minutes (min) at 4° C. and the plasma recovered and flash frozen for later analysis. The brain was removed from the cranium and hindbrain. The cerebellum was removed and the left and right hemisphere were separated. The left hemisphere was stored at −18° C. for quantitative analysis of test compound levels. The right hemisphere was rinsed with phosphate-buffered saline (PBS) buffer and immediately frozen on dry ice and stored at −80° C. until homogenization for biochemical assays.\nMouse brains from non-transgenic animals were resuspended in 8 volumes of 0.4% DEA (diethylamine)/50 mM NaCl containing protease inhibitors (Roche-11873580001 or 04693159001) per gram of tissue, e.g. for 0.158 g brain, add 1.264 ml of 0.4% DEA. All samples were homogenized in the FastPrep-24 system (MP Biomedicals) using lysing matrix D (MPBio #6913-100) at 6 m/s for 20 seconds. Homogenates were centrifuged at 20800×g for 5 min and supernatants collected. Supernatants were centrifuged at 221.300×g for 50 min. The resulting high speed supernatants were then transferred to fresh eppendorf tubes. Nine parts of supernatant were neutralized with 1 part 0.5 M Tris-HCl pH 6.8 and used to quantify Aβ.\nTo quantify the amount of Aβ42, Aβ40, Aβ38, and Aβ37 in the soluble fraction of the brain homogenates, simultaneous specific detection of Aβ42, Aβ40, Aβ38, and Aβ37 was performed using MSD's electro-chemiluminescence multiplex detection technology. In this assay purified monoclonal antibodies specific for Abeta37 (JRD/Aβ37/3), Abeta38 (J&JPRD/Aβ38/5), Abeta40 (JRF/cAβ40/28), and Abeta42 (JRF/cAβ(342/26) were coated on MSD 4-plex plates. Briefly, the standards (a dilution of synthetic Aβ42, Aβ40, Aβ38, and Aβ37) were prepared in 1.5 ml Eppendorf tube in Ultraculture, with final concentrations ranging from 10000 to 0.3 pg/m. The samples and standards were co-incubated with Sulfo-tag labelled JRF/rAβ/2 antibody to the N-terminus of Aβ as detector antibody. 50 μl of conjugate/sample or conjugate/standards mixtures were then added to the antibody-coated plate. The plate was allowed to incubate overnight at 4° C. in order to allow formation of the antibody-amyloid complex. Following this incubation and subsequent wash steps the assay was finished by adding read buffer according to the manufacturer's instructions (Meso Scale Discovery, Gaitherburg, Md.).\nThe SULFO-TAG emits light upon electrochemical stimulation initiated at the electrode. MSD Sector instrument SI6000 was used for signal read-out.\nThe results are shown in Table 8 (value for untreated animals as control (Ctrl) was set at 100): […]"}, "[3]": {"system": "Abeta total secreted by human neuroblastoma SKNBE2 cells expressing wild type hAPP695", "experiment": "BACE1 cellular αLisa assay in SKNBE2 cells, Abeta total", "format": "cell-based", "settings": "Homo sapiens, 18 hours incubation, read-out: Cellular αLisa assay in SKNBE2 cells Abetatotal pIC50 (converted)", "description": "In two αLisa assays the levels of Abeta total and Abeta 1-42 produced and secreted into the medium of human neuroblastoma SKNBE2 cells are quantified. The assay is based on the human neuroblastoma SKNBE2 expressing the wild type Amyloid Precursor Protein (hAPP695). The compounds are diluted and added to these cells, incubated for 18 hours and then measurements of Abeta 1-42 and Abeta total are taken. Abeta total and Abeta 1-42 are measured by sandwich αLisa. αLisa is a sandwich assay using biotinylated antibody AbN/25 attached to streptavidin coated beads and antibody Ab4G8 or cAb42/26 conjugated acceptor beads for the detection of Abeta total and Abeta 1-42 respectively. In the presence of Abeta total or Abeta 1-42, the beads come into close proximity. The excitation of the donor beads provokes the release of singlet oxygen molecules that trigger a cascade of energy transfer in the acceptor beads, resulting in light emission."}},
  "data": [
    {"smiles": "C[C@@]1(c2cc(NC(=O)c3ccc(F)cn3)ccc2F)Cn2nncc2C(N)=N1", "note": "[Compound 1, N-{3-[(6R)-4-amino-6-methyl-6,7-dihydro[1,2,3]triazolo[1,5-a]pyrazin-6-yl]-4-fluorophenyl}-5-fluoropyridine-2-carboxamide]", "values": [
      {"measurement": "BACE1 Biochemical FRET based assay - Method 2 pIC50", "setting": "[1]", "result": 8.37},
      {"measurement": "Aβ40 (% vs Ctrl)_Mean", "setting": "[2]; 2 h after administration", "result": 47, "unit": "% vs Ctrl"},
      {"measurement": "Aβ42 (% vs Ctrl)_Mean", "setting": "[2]; 2 h after administration", "result": 47, "unit": "% vs Ctrl"},
      {"measurement": "Aβ40 (% vs Ctrl)_Mean", "setting": "[2]; 4 h after administration", "result": 73, "unit": "% vs Ctrl"},
      {"measurement": "Aβ42 (% vs Ctrl)_Mean", "setting": "[2]; 4 h after administration", "result": 55, "unit": "% vs Ctrl"},
      {"measurement": "IC50", "setting": "[3]", "result": 3.24, "unit": "nM"}
    ]}
  ]
}
